Measured values taken from patent US6479469B2, “Treatment of arthritis and compositions therefore” (priority 2000, dated 2002).
“Also recorded” adds a separate entry of the source.

Legend:
dog with hip dysplasia = assay: Dog Study-2, dog with hip dysplasia, daily journal and video record; format: in vivo; conditions: 500 mg per day on food, one week
Experimental: 1 Week administration to arthritic/dysplastic dogs @ 500 mg set daily dose. Daily Journal and Video record was kept as described under Dog Study-1.
The subject was a 16-year-old female labrador crossbreed which had hip dysplasia evident in both hind limbs due to either age or an injury sustained at the age of 9 years.
Phase 1 The MGD was administered at 500 mg per day for a period of one week in a solution poured onto food.

chondrocytes (BAC) = assay: BAC growth assay (chondrocyte cell proliferation, Coulter count); format: cell-based, bovine; conditions: for effect on cell growth: 0-6 mM, serum 20%, FIG. 10; for effect on cell growth / effect on the proliferation of chondrocytes: BAC subculture 6; for effect on the proliferation of chondrocytes: 1 mg/ml, glucose 0.5 mg/ml, TGF-β 10 μg/ml, serum 10%, FIG. 8
Experimental: Cartilage slices were removed aseptically from bovine knee joint and digested with collagenase to obtain single cell chondrocytes. Both primary cultures and subcultures were established by procedures described previously (Chan C. and Anastassiades T., Biochem Cell Biol 74:233-240, 1996; Howard S. and Anastassiades T., J Rheumatol 20:2083-2094, 1993).For the growth assays, cells were seeded at 15,000 cells/well and 33,000 cells/well for the 24 and 6 well plates, respectively, in glucose free Dulbecco's modified Eagle's culture medium, base which was supplemented with glucose (1 mg/ml) and serum (10%). These cells were incubated in a humidified atmosphere of 95% air and 5% carbon dioxide at 37° C. On the following day, the medium was changed to fresh medium containing test materials of interest. The cells were harvested at time intervals and cell number determined using Coulter counter (Coulter Electronics Inc. Florida, USA). Results are expressed as the means of three replicate wells and each well was counted twice. The data are presented as mean ± SEM.
Initial studies examined the effect of 1 mg/ml of GlcN, GlcNac, GlcNpr and GlcNbu on the proliferation of chondrocytes (BAC subculture 6) maintained in medium supplemented with glucose (0.5 mg/ml), TGF-β (10 μg/ml) and serum (10%). […] The cells barely thrive at serum concentrations lower than 10% (data not shown).
Further experiments were carried out to determine whether the growth stimulation could be due to butyrate group or a mechanism solely dependent on GlcNbu. In this case, chondrocytes (BAC subculture 6) were maintained in culture in the presence of glucose (1 mg/ml), serum (20%) and various concentrations (0-6 mM) of sodium butyrate, GlcNbu and GlcN. […] Therefore, the growth stimulation observed is due to GlcNbu. The effect of GlcNbu at varying glucose medium concentrations (0-0.5 mg/ml) were evaluated using early and late subcultured chondrocytes.

[1] = test system: Bovine Articular Chondrocytes; assay: Glycosaminoglycan synthesis by Bovine Articular Chondrocytes (35S incorporation); format: cell-based; conditions: 0.1 mM GlcNBu; 35S label 4 days; per well; control 82,000 CPM; FIG. 14
Experimental: Bovine articular chondrocytes were grown to confluency in 35 mm wells and labelled with ^35S for 4 days in the presence of different concentrations of GlcNBu. The Glycosaminoglycans (GAG) were isolated from the medium and the radioactivity incorporated into the isolated GAG was determined
With reference to FIG. 14, the results are expressed on a per well basis and represent the means and standard deviations from four replicate wells. […] The control (0 mM concentration of GlcNBu) is the first point on the left indicating 82,000 CPM and the lowest concentration of GlcNBu is 0.1 mM indicating 112,000 CPM.

[2] = test system: experimentally induced inflammatory arthritis in Lewis rats; assay: Streptococcal cell wall induced inflammatory arthritis model, clinical assessment of hind legs; format: in vivo, rat; conditions: 18 days
Text: The experimental arthritis was induced by injecting cell walls of streptococcal bateria intra-peritoneally into Lewis rats. The resulting arthritis leads to cartilage and bone destruction in the injected rat. This experimental model is considered to provide some of the most useful insights in the development of human inflammatory, destructive arthropathies.
Method: Inflammatory arthritis was induced in Lewis strain rats by a single intra-peritoneal injection of the streptococcal wall pepti-polysaccharide antigen, as described in Brahn E. “Animal models of rheumatoid arthritis. Clues to etiology and treatment.” Clin Orthop. 1991 Apr; (265): 42-53. Review. Van den Broek M F, van Bruggen M C, Simpson S A, Severijnen A J, van de Putte L B, van den Berg W B. “Flare-up reaction of streptococcal cell wall induced arthritis in Lewis and F344 rats: the role of T lymphocytes.” Clin Exp Immunol. 1990 Feb; 79 (2): 297-306. Chen W., Jin W, Cook M, Weiner H L, Wahl S M. “Oral delivery of group A streptococcal cell walls augments circulating TGF-beta and suppresses streptococcal cell wall arthritis.” J Immunol. 1998 Dec. 1; 161 (11): 6297-304. On the same day as the injection, the rats had their drinking water supplemented either with 5 mg or 50 mg of GlcN or GlcNBu in 400 ml of water. There were three rats in each of the above groups. The rats drank the water containing the above compounds in an unrestricted fashion. The drinking water was replenished, when finished, so that the rats drank the same concentrations of the compounds throughout the experimental observation period. Each animal consumed approximately between 20-30 ml of water each day for each of the groups. After 18 days of experimental observation, the rats' hind legs were visually inspected for clinical assessment of the development of arthritis.

[3] = humans, cited from earlier work
bovine chondrocytes = conditions: in vitro; cited from earlier work
[4] = test system: dog with osteoarthritis due to anterior cruciate ligament injury; assay: Dog Study-1, osteoarthritic dog, daily journal and video record; format: in vivo
Experimental: 1 Week administration to arthritic/dysplastic dogs @500 mg set daily dose. A Daily Journal and Video record was kept.
The subject was a 9-year-old female collie crossbreed which had osteoarthritis due to a prior left anterior cruciate ligament injury (a previous tear now repaired). […] The animal is currently medicated with glucosamine at 500 mg per day.
For both Phase 1 and Phase 2 a video diary of a few minutes of two or three of the animal's exercise periods and a daily journal of casual observations was kept.

[5] = test system: mucopolysaccharides (glycosaminoglycans); conditions: Biochem. Pharmacol. (1973) 22:3018; cited from earlier work

| Compound | owner-observed mobility / behaviour (dog with hip dysplasia) | effect on cell growth (chondrocytes (BAC); glucose 1 mg/ml) | effect on the proliferation of chondrocytes (chondrocytes (BAC)) | clinical assessment of arthritis in hind legs ([2]; 5 mg in 400 ml drinking water) | clinical assessment of arthritis in hind legs ([2]; 50 mg in 400 ml drinking water) | other results |
| --- | --- | --- | --- | --- | --- | --- |
| CCCC(=O)N[C@H]1C(O)O[C@H](CO)[C@@H](O)[C@@H]1O (stereo partly drawn) [GlcNbu, N-Butyryl-D-glucosamine (2-n-Butanamido-2-deoxy-D-glucopyranose)] | a period of improvement | increased cell growth | significantly stimulated cell growth | normal hind lower legs and no clinical evidence of arthritis | minimal swelling in the right lower leg and probably a normal left lower leg | cell growth at various serum concentrations (chondrocytes (BAC); GlcNbu 0.4-10 mM, glucose 1 mg/ml, 10% vs 20% serum, FIG. 9): more increase in cell growth at 20% than 10% serum; stimulation of cell growth at varying glucose medium concentrations (chondrocytes (BAC); glucose 0-0.5 mg/ml, early and late subcultured chondrocytes, FIGS. 11 and 12): higher in the absence of glucose or very low glucose concentration; radioactivity incorporated into the GAG [1]: 112,000 CPM |
| CCCC(=O)[O-].[Na+] [sodium butyrate, reference compound] |  | decreased cell growth |  |  |  |  |
| CC(=O)N[C@H]1C(O)O[C@H](CO)[C@@H](O)[C@@H]1O (stereo partly drawn) [GlcNac, N-acetylglucosamine, reference compound] |  |  | much reduced effect on cell growth |  |  | half-life compared to glucosamine ([3]; Clin. Ther. (1996) 18:1184): longer half-life |
| N[C@@H](C=O)[C@@H](O)[C@H](O)[C@H](O)CO [GlcN, 2-amino-2-deoxy-D-glucose, reference compound] |  | decreased cell growth | inhibited cell growth compared to control | well-developed arthritis with swelling and redness in both of the hind lower legs | well-developed arthritis with swelling and redness in the right lower leg and less so in the left lower leg | growth or survival of chondrocytes (bovine chondrocytes): does not support growth or even survival of chondrocytes; serum levels after oral or IV administration ([3]; very large doses): serum levels cannot be detected |
| N-Butyryl-D-glucosamine (2-n-Butanamido-2-deoxy-D-glucopyranose) [GlcNbu] | isolated examples of improvement |  |  |  |  | tolerability ([4]; 500 mg per day on food, one week): tolerated at least at the same level as glucosamine; adverse reactions ([4]; 500 mg per day, one week): no adverse reactions were observed; protective effects (mobility/stiffness) compared to glucosamine ([4]; Phase 1, 500 mg per day, one week, listed as MGD): at least as good as glucosamine; also recorded: no appreciable difference from baseline; observation after withdrawal ([4]; Phase 2, Day 7 after MGD discontinued, listed as MGD): recurrence of a slight limp; also recorded: much stiffer gait and a slight limp |
| CCC(=O)N[C@H]1C(O)O[C@H](CO)[C@@H](O)[C@@H]1O (stereo partly drawn) [GlcNpr, N-propionylglucosamine] |  |  | much reduced effect on cell growth |  |  | incorporation of labeled glucosamine into mucopolysaccharides [5]: inhibits the incorporation of labeled glucosamine into mucopolysaccharides |
